How the values were obtained:
Assay in all cases: relative viability (nuclei count vs DMSO), 5 days (fraction); higher = more cells survive
BEN = tested on: BEN
Outline: (§1)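 Each reported value is a median over duplicate plates. It expresses relative viability: treated-well nuclei count divided by vehicle-well nuclei count. Lung cancer cell lines in 1536-well plates were dosed by pin tool a day after seeding, alone with one drug or with a fixed anchor-drug dose plus five library-drug doses (not always all listed) in √10 steps, and nuclei were counted after 5 days.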

HCC-15 = tested on: HCC-15
Outline: as §1

HCC-78 = tested on: HCC-78
Outline: as §1

LC-2-ad = tested on: LC-2-ad
Outline: as §1

LCLC-97TM1 = tested on: LCLC-97TM1
Outline: as §1

LK-2 = tested on: LK-2
Outline: as §1

LU99A = tested on: LU99A
Outline: as §1

LXF-289 = tested on: LXF-289
Outline: as §1

NCI-H1651 = tested on: NCI-H1651
Outline: as §1

NCI-H1666 = tested on: NCI-H1666
Outline: as §1

NCI-H1944 = tested on: NCI-H1944
Outline: as §1

NCI-H2087 = tested on: NCI-H2087
Outline: as §1

NCI-H322M = tested on: NCI-H322M
Outline: as §1

NCI-H358 = tested on: NCI-H358
Outline: as §1

NCI-H596 = tested on: NCI-H596
Outline: as §1

NCI-H650 = tested on: NCI-H650
Outline: as §1

NCI-H661 = tested on: NCI-H661
Outline: as §1

NCI-H838 = tested on: NCI-H838
Outline: as §1

PC-3 [JPC-3] = tested on: PC-3 [JPC-3]
Outline: as §1

SK-MES-1 = tested on: SK-MES-1
Outline: as §1

UMC-11 = tested on: UMC-11
Outline: as §1

NC(=O)Nc1cc(-c2cccc(F)c2)sc1C(=O)N[C@H]1CCCNC1 [AZD7762] + C[C@]1(O)C[C@@H](c2nc(-c3ccc4ccc(-c5ccccc5)nc4c3)c3c(N)nccn32)C1 [Linsitinib] (partner 1 µM)
relative viability (BEN; first compound 0.01 µM): 1.04 | relative viability (BEN; first compound 0.03162 µM): 0.892 | relative viability (BEN; first compound 0.1 µM): 0.797 | relative viability (BEN; first compound 0.3162 µM): 0.829 | relative viability (BEN; first compound 1 µM): 0.643 | relative viability (HCC-15; first compound 0.01 µM): 0.886 | relative viability (HCC-15; first compound 0.03162 µM): 0.918 | relative viability (HCC-15; first compound 0.1 µM): 0.915 | relative viability (HCC-15; first compound 0.3162 µM): 0.93 | relative viability (HCC-15; first compound 1 µM): 0.985 | relative viability (HCC-78; first compound 0.01 µM): 0.624 | relative viability (HCC-78; first compound 0.03162 µM): 0.553 | relative viability (HCC-78; first compound 0.1 µM): 0.581 | relative viability (HCC-78; first compound 0.3162 µM): 0.519 | relative viability (HCC-78; first compound 1 µM): 0.345 | relative viability (LC-2-ad; first compound 0.01 µM): 0.854 | relative viability (LC-2-ad; first compound 0.03162 µM): 0.929 | relative viability (LC-2-ad; first compound 0.1 µM): 0.787 | relative viability (LC-2-ad; first compound 0.3162 µM): 0.674 | relative viability (LC-2-ad; first compound 1 µM): 0.437 | relative viability (LCLC-97TM1; first compound 0.01 µM): 0.179 | relative viability (LCLC-97TM1; first compound 0.03162 µM): 0.209 | relative viability (LCLC-97TM1; first compound 0.1 µM): 0.214 | relative viability (LCLC-97TM1; first compound 0.3162 µM): 0.26 | relative viability (LCLC-97TM1; first compound 1 µM): 0.189 | relative viability (LK-2; first compound 0.01 µM): 0.691 | relative viability (LK-2; first compound 0.03162 µM): 0.597 | relative viability (LK-2; first compound 0.1 µM): 0.618 | relative viability (LK-2; first compound 0.3162 µM): 0.645 | relative viability (LK-2; first compound 1 µM): 0.308 | relative viability (LU99A; first compound 0.01 µM): 0.612 | relative viability (LU99A; first compound 0.03162 µM): 0.568 | relative viability (LU99A; first compound 0.1 µM): 0.526 | relative viability (LU99A; first compound 0.3162 µM): 0.432 | relative viability (LU99A; first compound 1 µM): 0.397 | relative viability (LXF-289; first compound 0.01 µM): 0.957 | relative viability (LXF-289; first compound 0.03162 µM): 0.938 | relative viability (LXF-289; first compound 0.1 µM): 1.01 | relative viability (LXF-289; first compound 0.3162 µM): 1.03 | relative viability (LXF-289; first compound 1 µM): 1.06 | relative viability (NCI-H1651; first compound 0.01 µM): 1.03 | relative viability (NCI-H1651; first compound 0.03162 µM): 0.904 | relative viability (NCI-H1651; first compound 0.1 µM): 0.902 | relative viability (NCI-H1651; first compound 0.3162 µM): 0.702 | relative viability (NCI-H1651; first compound 1 µM): 0.358 | relative viability (NCI-H1666; first compound 0.01 µM): 0.845 | relative viability (NCI-H1666; first compound 0.03162 µM): 1.02 | relative viability (NCI-H1666; first compound 0.1 µM): 1.05 | relative viability (NCI-H1666; first compound 0.3162 µM): 0.868 | relative viability (NCI-H1666; first compound 1 µM): 0.565 | relative viability (NCI-H1944; first compound 0.01 µM): 1.19 | relative viability (NCI-H1944; first compound 0.03162 µM): 1.26 | relative viability (NCI-H1944; first compound 0.1 µM): 1.35 | relative viability (NCI-H1944; first compound 0.3162 µM): 1.25 | relative viability (NCI-H1944; first compound 1 µM): 1.14 | relative viability (NCI-H2087; first compound 0.01 µM): 0.995 | relative viability (NCI-H2087; first compound 0.03162 µM): 0.986 | relative viability (NCI-H2087; first compound 0.1 µM): 1.07 | relative viability (NCI-H2087; first compound 0.3162 µM): 1.03 | relative viability (NCI-H2087; first compound 1 µM): 1.17 | relative viability (NCI-H322M; first compound 0.01 µM): 1.02 | relative viability (NCI-H322M; first compound 0.03162 µM): 1.03 | relative viability (NCI-H322M; first compound 0.1 µM): 0.92 | relative viability (NCI-H322M; first compound 0.3162 µM): 0.987 | relative viability (NCI-H322M; first compound 1 µM): 0.84 | relative viability (NCI-H358; first compound 0.01 µM): 0.695 | relative viability (NCI-H358; first compound 0.03162 µM): 0.745 | relative viability (NCI-H358; first compound 0.1 µM): 0.711 | relative viability (NCI-H358; first compound 0.3162 µM): 0.617 | relative viability (NCI-H358; first compound 1 µM): 0.42 | relative viability (NCI-H596; first compound 0.01 µM): 1.04 | relative viability (NCI-H596; first compound 0.03162 µM): 1.04 | relative viability (NCI-H596; first compound 0.1 µM): 1.03 | relative viability (NCI-H596; first compound 0.3162 µM): 1.1 | relative viability (NCI-H596; first compound 1 µM): 0.923 | relative viability (NCI-H650; first compound 0.01 µM): 1.01 | relative viability (NCI-H650; first compound 0.03162 µM): 0.984 | relative viability (NCI-H650; first compound 0.1 µM): 0.842 | relative viability (NCI-H650; first compound 0.3162 µM): 0.843 | relative viability (NCI-H650; first compound 1 µM): 0.811 | relative viability (NCI-H661; first compound 0.01 µM): 0.681 | relative viability (NCI-H661; first compound 0.03162 µM): 0.546 | relative viability (NCI-H661; first compound 0.1 µM): 0.444 | relative viability (NCI-H661; first compound 0.3162 µM): 0.501 | relative viability (NCI-H661; first compound 1 µM): 0.293 | relative viability (NCI-H838; first compound 0.01 µM): 0.982 | relative viability (NCI-H838; first compound 0.03162 µM): 1.01 | relative viability (NCI-H838; first compound 0.1 µM): 0.942 | relative viability (NCI-H838; first compound 0.3162 µM): 0.978 | relative viability (NCI-H838; first compound 1 µM): 0.627 | relative viability (PC-3 [JPC-3]; first compound 0.01 µM): 0.929 | relative viability (PC-3 [JPC-3]; first compound 0.03162 µM): 0.966 | relative viability (PC-3 [JPC-3]; first compound 0.1 µM): 0.999 | relative viability (PC-3 [JPC-3]; first compound 0.3162 µM): 0.987 | relative viability (PC-3 [JPC-3]; first compound 1 µM): 0.927 | relative viability (SK-MES-1; first compound 0.01 µM): 1.06 | relative viability (SK-MES-1; first compound 0.03162 µM): 1.12 | relative viability (SK-MES-1; first compound 0.1 µM): 1.11 | relative viability (SK-MES-1; first compound 0.3162 µM): 1.04 | relative viability (SK-MES-1; first compound 1 µM): 0.414 | relative viability (UMC-11; first compound 0.01 µM): 1.03 | relative viability (UMC-11; first compound 0.03162 µM): 0.956 | relative viability (UMC-11; first compound 0.1 µM): 0.976 | relative viability (UMC-11; first compound 0.3162 µM): 0.689 | relative viability (UMC-11; first compound 1 µM): 0.551
